One data set has as its system C57BL/6J mice. Put plainly: Glucokinase activator in vivo screen protocol (blood glucose after oral dosing). To be noted: oral gavage 50 mg/kg after two hour fast, blood glucose at 1, 2, 4 and 6 hours post dose, active = p≦0.05 decrease for two consecutive time points. As to the method: Glucokinase Activator in vivo Screen Protocol
C57BL/6J. mice are orally dosed via gavage with Glucokinase (GK) activator at 50 mg/kg body weight following a two hour fasting period. Blood glucose determinations are made five times during the six hour post-dose study period.
Mice (n=6) are weighed and fasted for a two hour period prior to oral treatment. GK activators are formulated at 6.76 mg/ml in Gelucire vehicle (Ethanol:Gelucire44/14:PEG400q.s. 4:66:30 v/w/v. Mice are dosed orally with 7.5 μl formulation per gram of body weight to equal a 50 mg/kg dose. Immediately prior to dosing, a pre dose (time zero) blood glucose reading is acquired by snipping off a small portion of the animals tail (˜1 mm) and collecting 15 μl blood into a heparinized capillary tube for analysis. Following GK activator administration, additional blood glucose readings are taken at 1, 2, 4 and 6 hours post dose from the same tail wound. Results are interpreted by comparing the mean blood glucose values of six vehicle treated mice with six GK activator treated mice over the six hour study duration.

As usually defined, the melting point is the temperature, or range, at which the solid turns liquid.

`CC/C=C(/C(=O)Nc1nccs1)c1ccc(S(C)(=O)=O)cc1` [Example 1, (E)-2-(4-Methanesulfonyl-phenyl)-pent-2-enoic acid thiazol-2-ylamide]: the melting point lay within 155 to 158 °C.
As to `CS(=O)(=O)c1ccc(/C(=C\C2CCCC2)C(=O)Nc2nccs2)cc1` [Example 3, (E)-3-Cyclopentyl-2-(4-methanesulfonyl-phenyl)-N-thiazol-2-yl-acrylamide], the melting point lay within 172 to 173 °C. Moreover, the “glucokinase activator in vivo activity (decrease in blood glucose compared to vehicle)” value in the data set on C57BL/6J mice is reported as “excellent glucokinase activator in vivo activity”.
For the compound `CS(=O)(=O)c1ccc(/C(=C\C2CCCCC2)C(=O)Nc2nccs2)cc1` [Example 4, (E)-3-Cyclohexyl-2-(4-methanesulfonyl-phenyl)-N-thiazol-2-yl-acrylamide], the “glucokinase activator in vivo activity (decrease in blood glucose compared to vehicle)” value in the data set on C57BL/6J mice is on record as “excellent glucokinase activator in vivo activity”.
In turn, `CS(=O)(=O)c1ccc(/C(=C\C2CCCCCC2)C(=O)Nc2nccs2)cc1` [Example 5, (E)-3-Cycloheptyl-2-(4-methanesulfonyl-phenyl)-N-thiazol-2-yl-acrylamide] returned a melting point of 163 to 165 °C. Also, the “glucokinase activator in vivo activity (decrease in blood glucose compared to vehicle)” value in the data set on C57BL/6J mice was “excellent glucokinase activator in vivo activity”.
Regarding `CS(=O)(=O)c1ccc(/C(=C\C2CCCC2)C(=O)Nc2ncc(Br)s2)cc1` [Example 7, (E)-N-(5-Bromo-thiazol-2-yl)-3-cyclopentyl-2-(4-methanesulfonyl-phenyl)-acrylamide], the melting point is 202 to 205 °C.
In turn, `O=C(Nc1nccs1)/C(=C/C1CCCC1)c1ccc(Cl)c(Cl)c1` [Example 8, (E)-3-Cyclopentyl-2-(3,4-dichloro-phenyl)-N-thiazol-2-yl-acrylamide] returned a melting point of 57 to 59 °C.
As for `CS(=O)(=O)c1ccc(/C(=C\C2CCCC2)C(=O)Nc2nccs2)cc1Cl` [Example 9, (E)-2-(3-Chloro-4-methanesulfonyl-phenyl)-3-cyclopentyl-N-thiazol-2-yl-acrylamide], in the data set on C57BL/6J mice, the “glucokinase activator in vivo activity (decrease in blood glucose compared to vehicle)” value is given as “excellent glucokinase activator in vivo activity”.
Same read-out and setting: the same measure for `CS(=O)(=O)c1ccc(/C(=C\C2CCCCC2)C(=O)Nc2nccs2)cc1C(F)(F)F` [Example 12, (E)-3-Cyclohexyl-2-(4-methanesulfonyl-3-trifluoromethyl-phenyl)-N-thiazol-2-yl-acrylamide]: “excellent glucokinase activator in vivo activity”.
Same read-out and setting: the same measure for `CS(=O)(=O)c1ccc(/C(=C\C2CCCCC2)C(=O)Nc2nccs2)cc1[N+](=O)[O-]` [Example 14, (E)-3-Cyclohexyl-2-(4-methanesulfonyl-3-nitro-phenyl)-N-thiazol-2-yl-acrylamide]: “excellent glucokinase activator in vivo activity”.
`CS(=O)(=O)c1ccc(/C(=C\C2CCCCCC2)C(=O)Nc2ncc(Br)s2)cc1` [Example 16, (E)-N-(5-Bromo-thiazol-2-yl)-3-cycloheptyl-2-(4-methanesulfonyl-phenyl)-acrylamide] gave a melting point of 159 to 163 °C. The “glucokinase activator in vivo activity (decrease in blood glucose compared to vehicle)” value in the data set on C57BL/6J mice is recorded as “excellent glucokinase activator in vivo activity”.
Regarding `CS(=O)(=O)c1ccc(/C(=C\C2CCCC2)C(=O)Nc2ccccn2)cc1Cl` [Example 19, (E)-2-(3-Chloro-4-methanesulfonyl-phenyl)-3-cyclopentyl-N-pyridin-2-yl-acrylamide], in the data set on C57BL/6J mice, the “glucokinase activator in vivo activity (decrease in blood glucose compared to vehicle)” value is on record as “excellent glucokinase activator in vivo activity”.
The same measure, in the same setting: the same measure for `CS(=O)(=O)c1ccc(/C(=C\C2CCCCC2)C(=O)Nc2ccc(Br)cn2)cc1C(F)(F)F` [Example 20, (E)-N-(5-Bromo-pyridin-2-yl)-3-cyclohexyl-2-(4-methanesulfonyl-3-trifluoromethyl-phenyl)-acrylamide]: “excellent glucokinase activator in vivo activity”.
Compound `CS(=O)(=O)c1ccc(/C(=C\CC2CCCC2)C(=O)Nc2nccs2)cc1` [Example 21, (E)-4-Cyclopentyl-2-(4-methanesulfonyl-phenyl)-but-2-enoic acid thiazol-2-ylamide] displayed a melting point of 173 to 176 °C. For the same compound, the “glucokinase activator in vivo activity (decrease in blood glucose compared to vehicle)” value in the data set on C57BL/6J mice was “excellent glucokinase activator in vivo activity”.
Taken in the same sequence, the figures for `COC(=O)c1csc(NC(=O)/C(=C/CC2CCCC2)c2ccc(S(C)(=O)=O)cc2)n1` [Example 22, (E)-2-[4-Cyclopentyl-2-(4-methanesulfonyl-phenyl)-but-2-enoylamino]-thiazole-4-carboxylic acid methyl ester] were 85 to 90 °C and “excellent glucokinase activator in vivo activity”.
In the case of `CS(=O)(=O)c1ccc(/C(=C\CC2CCCC2)C(=O)Nc2nccs2)cc1C(F)(F)F` [Example 25, (E)-4-Cyclopentyl-2-(4-methanesulfonyl-3-trifluoromethyl-phenyl)-but-2-enoic acid thiazol-2-ylamide], in the data set with C57BL/6J mice, the “glucokinase activator in vivo activity (decrease in blood glucose compared to vehicle)” value is “excellent glucokinase activator in vivo activity”.
The compound `CNC(=O)NC(=O)/C(=C/C(C)C)c1ccc(Cl)c(Cl)c1` [Example 26, (E)-1-[2-(3,4-Dichloro-phenyl)-4-methyl-pent-2-enoyl]-3-methyl-urea] gave a melting point of 177 to 178 °C.
Still for that read-out and setting: under `CNC(=O)NC(=O)/C(=C/C1CCCCC1)c1ccc(S(C)(=O)=O)c(C(F)(F)F)c1` [Example 27, (E)-1-[3-Cyclohexyl-2-(4-methanesulfonyl-3-trifluoromethyl-phenyl)-acryloyl]-3-methyl-urea] stands 199 to 202 °C.

The values above are taken from patent US6353111B1, “Trans olefinic glucokinase activators” (Hoffmann-La Roche Inc., priority 1999, dated 2002).
